# According to patent US12378211B2, “Carbonic anhydrase inhibitors and antibiotics against multidrug resistant bacteria” (Purdue Research Foundation, priority 2018, dated 2025):
# Read-outs that look alike come from different tables or passages of the source.
# Tests used:
# [1] = system: Wild-type E. fecalis (NR 31975); test: MIC against wild-type strain (mutant study); format: cell-based, Enterococcus fecalis
# [2] = system: Mutant-12 of Enterococcus fecalis NR 31975; test: microbe, parasite or virus in culture; format: cell-based
# [3] = system: Mutant-11 of Enterococcus fecalis NR 31975; test: microbe, parasite or virus in culture; format: cell-based
# [4] = system: fibroblast-like monkey kidney cell line (VERO cell); test: In vitro cytotoxicity, MTS assay, VERO cells; format: cell-based; conditions: at concentration up to 128 μg/mL; tested at 64 and 128 μg/mL; two hours
# Description: Toxicity assessment: Compounds AS005H, AS005J, AS004B, AS005K, AS005A and 005D were assayed (at concentrations of 64 and 128 μg/mL) against a fibroblast-like monkey kidney cell line (VERO cell) to determine the potential toxic effect in vitro. Briefly, cells were cultured in Minimum Essential Medium (MEM) supplemented with 10% fetal bovine serum (FBS), 1 mM sodium pyruvate, and penicillin-streptomycin at 37° C. with CO2 (5%). Control cells received DMSO alone at a concentration equal to that in drug-treated cell samples. The cells were incubated with the compounds (in triplicate) in a 96-well plate at 37° C. with CO2 (5%) for two hours. The assay reagent MTS 3-(4,5-dimethylthiazol-2-yl)-5-(3-carboxymethoxyphenyl)-2-(4-sulfophenyl)-2H-tetrazolium) (Promega, Madison, WI, USA) was subsequently added and the plate was incubated for four hours. Absorbance readings (at OD490) were taken using a kinetic microplate reader (Molecular Devices, Sunnyvale, CA, USA). The quantity of viable cells after treatment with each compound was expressed as a percentage of the viability of DMSO-treated control cells (average of triplicate wells±standard deviation). The toxicity data was analyzed via a two-way ANOVA, with post hoc Dunnet's multiple comparisons test (P<0.05), utilizing GraphPad Prism 6.0 (GraphPad Software, La Jolla, CA).
# (§1) Percent viable mammalian cells (measured as average absorbance ratio (test agent relative to DMSO) for cytotoxicity analysis of compounds AS005H, AS005J, AS004B, AS005K, AS005A and 005D (tested in triplicates) at 64 and 128 μg/mL against VERO cells using the MTS 3-(4,5-dimethylthiazol-2-yl)-5-(3-carboxymethoxyphenyl)-2-(4-sulfophenyl)-2H-tetrazolium) assay. Dimethyl sulfoxide (DMSO) was used as a negative control to determine a baseline measurement for the cytotoxic impact of each compound. The absorbance values represent an average of a minimum of three samples analyzed for each compound. Error bars represent standard deviation values for the absorbance values.
# [5] = system: Mutant-9 of Enterococcus fecalis NR 31975; test: microbe, parasite or virus in culture; format: cell-based
# [6] = system: Mutant-8 of Enterococcus fecalis NR 31975; test: microbe, parasite or virus in culture; format: cell-based
# [7] = system: human colorectal adenocarcinoma (Caco-2) cell; test: In vitro cytotoxicity, MTS assay, Caco-2 cells; conditions: at concentration up to 128 μg/mL; tested at 64 and 128 μg/mL; two hours
# Description: Method: Compounds AS005H, AS005J, AS004B, AS005K, AS005A and 005D were assayed (at concentrations of 64 and 128 μg/mL) against a human colorectal adenocarcinoma (Caco-2) cell to determine the potential toxic effect to mammalian cells in vitro. Briefly, cells were cultured in Dulbecco's Modified Eagle Medium (DMEM) supplemented with 20% fetal bovine serum (FBS), non-essential amino acids (1×), penicillin-streptomycin at 37° C. with CO2 (5%). Control cells received DMSO alone at a concentration equal to that in drug-treated cell samples. The cells were incubated with the compounds (in triplicate) in a 96-well plate at 37° C. with CO2 (5%) for two hours. The assay reagent MTS 3-(4,5-dimethylthiazol-2-yl)-5-(3-carboxymethoxyphenyl)-2-(4-sulfophenyl)-2H-tetrazolium) (Promega, Madison, WI, USA) was subsequently added and the plate was incubated for four hours. Absorbance readings (at OD490) were taken using a kinetic microplate reader (Molecular Devices, Sunnyvale, CA, USA). The quantity of viable cells after treatment with each compound was expressed as a percentage of the viability of DMSO-treated control cells (average of triplicate wells±standard deviation). The toxicity data was analyzed via a two-way ANOVA, with post hoc Dunnet's multiple comparisons test (P<0.05), utilizing GraphPad Prism 6.0 (GraphPad Software, La Jolla, CA).
# as §1, with “of” for “of compounds”, “005D compounds” for “005D”, “triplicate)” for “triplicates)”, “Caco-2” for “VERO”, “values. […]” for “values.”
# [8] = system: Enterococcus faecalis-S613 HM-334; test: MIC in presence of 4% human serum albumin; format: cell-based; conditions: TSB supplemented with 4% human serum albumin
# Description: The minimum inhibitory concentrations (MICs) of CAIs were tested against vancomycin resistant Enterococcus faecalis—S613 HM 334 strain as per the guidelines provided by the Clinical and Laboratory Standards Institute (CLSI). The selected strain was streaked on Tryptic Soy Agar (TSA) plate and let grow for 24 hours at 37° C. Afterwards, a bacterial solution equivalent to 0.5 McFarland standard was prepared and diluted in tryptone soy broth (TSB) supplemented with 4% human serum albumin (HAS) to achieve a bacterial concentration of about 5×10^5 CFU/mL and seeded in 96-well well plates. Compounds and control drugs were added in the first row of the 96-well plates and serially diluted along the plates. Plates were then incubated aerobically at 37° C. for 18-20 hours. MICs reported in table (6) are the minimum concentration of the compounds/control drugs that could inhibit completely the visual growth of the bacteria.
# [9] = Enterococcus, Table 4, read-out: MIC
Structure (SMILES),"MIC [1, 9] [µg/mL]",MIC ([2]; Enterococcus) [µg/mL],MIC ([3]; Enterococcus) [µg/mL],toxicity to VERO cells (percent viable cells relative to DMSO) [4],MIC ([5]; Enterococcus) [µg/mL],MIC ([6]; Enterococcus) [µg/mL],toxicity to Caco-2 cells (percent viable cells relative to DMSO) [7],"MIC ([8]; Enterococcus, read-out: MIC) [µg/mL]",MIC ([1]; Table 4) [µg/mL],MIC ([2]; Mutant-12) [µg/mL],MIC ([3]; Mutant-11) [µg/mL],MIC ([5]; Mutant-9) [µg/mL],MIC ([6]; Mutant-8) [µg/mL],MIC [8] [µg/mL]
"CCc1ccc(C(=O)Nc2nnc(S(N)(=O)=O)s2)cc1 [CAI0017, 4-Ethyl-N-(5-sulfamoyl-1,3,4-thiadiazol-2-yl)benzamide]",2,16,8,non-toxic,16,8,non-toxic,,,,,,,
"CC(=O)Nc1nnc(S(N)(=O)=O)s1 [Acetazolamide, reference compound]",,32,16,,16,32,,> 256,,,,,,
"CC(C)=CC(=O)Nc1nnc(S(N)(=O)=O)s1 [CAI0016, 3-Methyl-N-(5-sulfamoyl-1,3,4-thiadiazol-2-yl) but-2-enamide]",,,,non-toxic,,,,,1,8,4,4,4,>256
"CC(C)(C)C(=O)Nc1nnc(S(N)(=O)=O)s1 [CAI0010, N-(5-Sulfamoyl-1,3,4-thiadiazol-2-yl) pivalamide]",0.5,8,4,non-toxic,8,8,non-toxic,> 256,,,,,,
NS(=O)(=O)c1nnc(NC(=O)CCC2CCCC2)s1 [CAI0015],,,,non-toxic,,,,,0.0625,2,2,1,2,>256
"CC(=O)NC[C@H]1CN(c2ccc(N3CCOCC3)c(F)c2)C(=O)O1 [Linezolid, reference compound]",,4,4,,4,8,,,,,,,,
"CC(C)C(=O)Nc1nnc(S(N)(=O)=O)s1 [CAI0011, N-(5-Sulfamoyl-1,3,4-thiadiazol-2-yl) isobutyramide]",,,,non-toxic,,,non-toxic,,,,,,,
